“Also recorded” adds a separate entry of the source.
Legend:
[1] = tested on: PEPvIII epitope (EGFRvIII); assay: PEPvIII-specific IgG antibody titers in sera after subcutaneous immunization (ELISA); format: in vivo, C57BL/6 mice; conditions: for PEPvIII-specific IgG antibody response: s.c. primary injection week 0 (2×10^−3 M PEPvIII epitope, 100 μL), half-dose boosts weeks 4 and 7, sera over 18 weeks
Method: Vaccine Preparation: To prepare PEPvIII-Coil29 peptide fibers solutions for immunization, the lyophilized peptides were first dissolved in 10×10^−3 M sterile acetate buffer (pH 4) at 8×10^−3 M and incubated overnight at […]. The peptide solutions were subsequently diluted to 2×10^−3 M in 1×PBS, and incubated 3 h at room temperature prior to immunization. For coassembled peptide fiber formation, PEPvIII-Coil29 and PADRE-Coil29 were weight out separately, and mixed on vortex for 5 mins before dissolved in 10×10^−3 M sterile acetate buffer (pH 4), and diluted in the same procedure as PEPvIII-Coil29 nanofiber preparation. To prepare CFA/IFA peptide emulsion for immunization, PEPvIII peptide was initially dissolved in 4×10^−3 M in sterile water, and equal volume of adjuvant solution was mixed in with peptide solution and vortexed for 45 min to bring the final concentration of peptide to 2×10^−3 M for injection.
Mice and Immunizations: Female 057B1/6 mice were purchased from Harlan laboratory and housed at the animal facility at the University of Chicago and Duke University. All procedures were approved by both the University of Chicago Institutional Animal Care and Use Committee (protocol 71-900) and the Duke Institutional Animal Care and Use Committee (protocol A314-15-12 19N). Mice (6-12 weeks old; age-matched within each experiment) were randomly assigned in groups of five for each condition based on previous findings that this size was sufficient to distinguish responding versus nonresponding groups. Anesthetized mice were immunized subcutaneously with the indicated solutions (2×50 μL at the shoulders) and boosted where indicated with half-doses (2×25 μL) after 4 weeks and 7 weeks. Sera were collected from the submandibular (cheek) vein for analysis via ELISA. Mice were sacrificed 7 d after the final immunization, and the cells from the draining lymph nodes (axillary, brachial, and inguinal) were collected.
ELISA for Serum Antibodies: Serum was analyzed for antigenspecific Ig (Anti-IgG (H+L), Jackson Immuno Research, Cat #115-035-003) or IgG (gamma-specific, #115-035-071) by ELISA, as previously described (Egelman, E. H., et al. Structure 2015, 23, 280-28). To detect E214-specifi c antibodies, the plate was coated with 5 μg/mL E214-ahx-C (provided by Merck) in PBS or with 5 μg/mL streptavidin (Sigma #85878) followed by 10 μg/mL E214-PEG-biotin in PBS. […]
Peptides were synthesized by solid phase peptide synthesis by methods known in the art. […] Antibody titers were determined using ELISA.
We subsequently investigated the immunogenicity of the Coil29 peptide platform. […] Sera were collected from all the groups at predesignated dates over 18 weeks, and analyzed for peptide-specific antibody titers via ELISA (FIG. 9). […]

[2] = tested on: SGSG-Coil29 peptide; assay: IgG antibody response against the carrier SGSG-Coil29 sequence (ELISA); format: in vivo, C57BL/6 mice; conditions: boosts weeks 4 and 7
Method: Two boost containing half the primary immunization doses were given on week 4 and week 7 for both groups. Sera were collected to measure the IgG production against SGSG-Coil29 peptide using ELISA.
Antibody responses against the carrier (SGSG Coil29 sequence) were also measured by ELISA for both PEPvIII-Coil29 group and PEPvIII-Coil29/PADRE-Coil29 group (FIG. 4).
We subsequently investigated the immunogenicity of the Coil29 peptide platform. Four groups of C57BL/6 mice were immunized subcutaneously with same amount of epitope peptides (2×10^−3M of PEPvIII epitopes, 100 μL per mouse) on week 0, and boosted twice with half of the primary doses (2×10^−3M of PEPvIII epitopes, 50 μL per mouse) at weeks 4 and 7. Mice primed with an emulsion of PEPvIII with complete Fruend's adjuvant (CFA), and boosted with PEPvIII and incomplete Fruend's adjuvant (IFA) served as a positive control. Sera were collected from all the groups at predesignated dates over 18 weeks, and analyzed for peptide-specific antibody titers via ELISA (FIG. 9). […] Strikingly, the second boost at week 7 elevated the antibody titer nearly 100-fold, with the highest titer level reaching about 10^5 at week 9. […] The considerable difference in antibody response between P-C and P-C/P groups underlined the importance of the T cell epitope (PADRE) in promoting antibody responses with the Coil29 platform. […]

[3] = tested on: splenocytes; assay: T-cell ELISPOT (IL-4, IFNγ) on splenocytes of immunized mice; format: cell-based, C57BL/6 mice
Method: T-Cell ELIspot: T-cell ELIspots were performed as described. Briefly, 0.25 million cells from the spleen were plated in each well of a 96-well ELIspot plate (Millipore, MSIPS4510), in 200 μL per well. The cells were then stimulated with peptide or left untreated as negative controls. […] Streptavidinalkaline phosphatase (3310-10) was purchased from Mabtech. Spots were developed using substrate Sigmafast BCIP/NBT (Sigma, B5655). Plates were imaged and enumerated using an ELISPOT reader (Cellular Technology, Ltd).
We further analyzed how the PADRE epitope dosing could impact the humoral response in the current platform (FIG. 10). Four groups of mice were immunized with Coil29 nanofibers formulated with different PADRE epitope concentrations ranging from 0 to 0.5×10^−3M in final concentration, and the PEPvIII-specific total IgG titers were monitored over 17 weeks (FIG. 10A). […] However, the difference in antibody response in relationship with PADRE dosing could possibly be caused by several reasons, including the use of a different B cell epitope. We are currently investigating the mechanism of this observation. It highlighted the significance in future application where the formulation of nanofibers should be fine-tuned for different epitopes induce optimal response. […]

[4] = tested on: dendritic cells (CD11c+MHCII+F4/80−); assay: Uptake of TAMRA labelled peptides by dendritic cells in vivo (flow cytometry of peritoneal lavage fluid); set-up: species or system C57BL/6 mice; conditions: TAMRA labelled peptide, i.p. injection, peritoneal lavage 20 h after injection
Method: (§1) Antibodies and Flow Cytometry: Antibodies were purchased from eBioscience unless specified. Flow cytometry was performed using LSRII blue (BD). FlowJo (Tree Star Inc.) was used in the analysis of flow data. For analysis of cell recruitment to the peritoneal cavity, cells isolated from i.p. lavage fluid were stained and analyzed as described.
(§2) To examine whether the epitope-bearing nanofibers could be internalized by APCs, C57BL/6 mice were immunized via i.p. injection with 1×PBS, or PEPvIII or P-C peptides fluorescently labelled with TAMRA (FIG. 8). […] The peritoneal lavage fluid was collected 20 h after injections, to analyze for the percentage of TAMRA positive DCs (CD11c^+MHCII^+F4/80^−) and MΦ (CD11c^−F4/80^+) using flow cytometry (FIG. 18).

[5] = tested on: macrophages (CD11c−F4/80+); assay: Uptake of TAMRA labelled peptides by macrophages in vivo (flow cytometry of peritoneal lavage fluid); set-up: species or system C57BL/6 mice; conditions: TAMRA labelled peptide, i.p. injection, peritoneal lavage 20 h after injection
Method: as §1, §2

| Substance | PEPvIII-specific total IgG titers, PADRE dosing study ([1]; PADRE 0 or 0.05×10^−3 M final concentration, monitored over 17 weeks) | PEPvIII-specific IgG antibody response [1] | PEPvIII-specific IgG antibody response ([1]; listed as PEPvIII-Coil29) | IgG antibody response against SGSG-Coil29 [2] | IgG antibody response against SGSG-Coil29 ([2]; listed as PEPvIII-Coil29) | T cell IFNγ and IL4 response (ELISPOT) ([3]; splenocytes collected on week 18, stimulated with PADRE or PEPvIII peptide) | percentage of TAMRA positive dendritic cells [4] | percentage of TAMRA positive macrophages [5] | concentration above which the ELISPOT response saturated ([3]; preliminary experiments) |
| --- | --- | --- | --- | --- | --- | --- | --- | --- | --- |
| NH2-LEEKKGNYVVTDH SGSG QARILEADAEILRAYARILEAHAEILRAQ-Amide (H-LEEKKGNYVVTDHSGSGQARILEADAEILRAYARILEAHAEILRAQ-NH2) [P-C] | negligible levels of IgG | unable to raise a significant level of epitope-specific IgG antibody titer | very weak responses | gradually diminished to a negligible level after the total IgG titers peaked at week 9 | self-limiting, returning to baseline levels after 16 weeks | responded to neither PADRE peptide nor PEPvIII peptide | – | – | – |
| NH2-LEEKKGNYVVTDH-Amide [PEPvIII, reference compound] | – | did not elicit antibody responses; also recorded: failed to elicit any antibody response | – | – | – | – | statistically indistinguishable from the 1×PBS negative control group | statistically indistinguishable from the 1×PBS negative control group | – |
| NH2-aKXVAAVVTLKAa-Amide [PADRE, reference compound] | – | – | – | – | – | – | – | – | above 0.5×10^−6 M |

Reference: US11246924B2, “Alpha-helical peptide nanofibers as a self-adjuvanting vaccine platform” (Duke University, priority 2016, dated 2022)
